± gives the expanded uncertainty stated by the source.
How the values were obtained:
[1] = Crystal; DTA
[2] = Molar enthalpy of transition or fusion; settings: Crystal; DSC

For O=S1(=O)c2ccccc2-c2ccccc21 [dibenzothiophene sulfone], the Normal melting temperature [1] was 236.1 ± 0.5 °C and the “Molar enthalpy of transition or fusion” value [2] was 6.49 ± 0.196 kcal/mol.

— the NIST ThermoML archive (doi:10.1021/je700234e)
